Drawing on BindingDB's records for doi:10.1074/jbc.M203194200 (Tanabe Seiyaku, 2002), this text covers Ki for 3 molecules.

pKi: −log10 of the molar value.

The pKi is the Ki on a negative log10 scale, so that one unit is a factor of ten. Lower therefore signals a large Ki.

This assay deals with Oxoeicosanoid receptor 1 (Homo sapiens, UniProt Q8TDS5).
Oxoeicosanoid receptor 1, sequence (Q8TDS5 as listed by the source): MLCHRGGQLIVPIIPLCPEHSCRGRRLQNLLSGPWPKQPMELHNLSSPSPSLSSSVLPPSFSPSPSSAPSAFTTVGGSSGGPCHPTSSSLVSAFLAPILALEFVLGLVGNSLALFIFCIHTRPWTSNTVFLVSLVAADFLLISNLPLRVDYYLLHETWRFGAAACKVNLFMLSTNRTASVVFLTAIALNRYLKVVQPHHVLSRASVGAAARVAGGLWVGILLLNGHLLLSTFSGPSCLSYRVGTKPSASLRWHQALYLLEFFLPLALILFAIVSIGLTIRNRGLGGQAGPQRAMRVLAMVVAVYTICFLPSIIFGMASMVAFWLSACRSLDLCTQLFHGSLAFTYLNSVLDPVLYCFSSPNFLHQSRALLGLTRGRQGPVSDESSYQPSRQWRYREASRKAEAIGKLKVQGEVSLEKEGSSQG

Turning to `CC/C=C\C/C=C\C/C=C\C/C=C\C/C=C\CCCC(=O)O` [5,8,11,14,17-EICOSAPENTAENOIC ACID], the negative-log Ki (pKi) was 5.22.
The value for `CCCCC/C=C\C/C=C\C/C=C\CCCCCCC(=O)O` [(Z,Z,Z)-8,11,14-Eicosatrienoic acid] was 5.43.
Turning to `CC/C=C\C/C=C\C/C=C\C/C=C\C/C=C\C/C=C\CCC(=O)O` [all-cis-docosa-4,7,10,13,16,19-hexaenoic acid], the pKi was 5.80.
